A compilation of properties of binary mixtures (doi:10.1021/je990207b)

Experiment: excess molar enthalpy (molar enthalpy of mixing); xn = mol fraction of the nth substance listed
Conditions: 298.15 K, 100 kPa

CC(C)CC(=O)O + CC#N
Conditions	excess molar enthalpy [kcal/mol]
x2 = 0.0895	0.0454
x2 = 0.1287	0.0645
x2 = 0.1972	0.0978
x2 = 0.3371	0.151
x2 = 0.4026	0.175
x2 = 0.52	0.205
x2 = 0.5902	0.21
x2 = 0.6283	0.207
x2 = 0.7177	0.189
x2 = 0.7835	0.161
x2 = 0.8207	0.136
x2 = 0.8529	0.12
x2 = 0.8744	0.104
x2 = 0.9379	0.0492

CC(=O)O + CC#N
Conditions	excess molar enthalpy [kcal/mol]
x2 = 0.0927	0.023
x2 = 0.1409	0.0359
x2 = 0.2787	0.0588
x2 = 0.381	0.0696
x2 = 0.571	0.0679
x2 = 0.7416	0.0474
x2 = 0.809	0.0379
x2 = 0.8722	0.0268
x2 = 0.915	0.019

CCCCC(=O)O + CC#N
Conditions	excess molar enthalpy [kcal/mol]
x2 = 0.1197	0.0643
x2 = 0.1899	0.1
x2 = 0.2311	0.12
x2 = 0.2782	0.139
x2 = 0.4131	0.183
x2 = 0.4825	0.199
x2 = 0.5404	0.205
x2 = 0.6211	0.202
x2 = 0.637	0.2
x2 = 0.6655	0.195
x2 = 0.7138	0.182
x2 = 0.7441	0.173
x2 = 0.8076	0.14
x2 = 0.8487	0.115
x2 = 0.9029	0.0725
x2 = 0.9603	0.0285

CC(C)C(=O)O + CC#N
Conditions	excess molar enthalpy [kcal/mol]
x2 = 0.187	0.116
x2 = 0.2347	0.141
x2 = 0.2938	0.172
x2 = 0.3508	0.192
x2 = 0.3982	0.206
x2 = 0.4547	0.22
x2 = 0.5013	0.222
x2 = 0.5479	0.221
x2 = 0.6046	0.214
x2 = 0.6531	0.201
x2 = 0.6827	0.189
x2 = 0.7273	0.172
x2 = 0.8013	0.138
x2 = 0.9158	0.0654

CCCC(=O)O + CC#N
Conditions	excess molar enthalpy [kcal/mol]
x2 = 0.089	0.0382
x2 = 0.1448	0.0632
x2 = 0.1884	0.0809
x2 = 0.2668	0.108
x2 = 0.4626	0.15
x2 = 0.523	0.155
x2 = 0.5889	0.152
x2 = 0.6417	0.147
x2 = 0.6605	0.143
x2 = 0.686	0.138
x2 = 0.7141	0.131
x2 = 0.7884	0.105
x2 = 0.8201	0.0917
x2 = 0.8728	0.0713
x2 = 0.9067	0.0519
x2 = 0.9377	0.031

CCC(=O)O + CC#N
Conditions	excess molar enthalpy [kcal/mol]
x2 = 0.156	0.0696
x2 = 0.2134	0.0896
x2 = 0.278	0.11
x2 = 0.3407	0.127
x2 = 0.399	0.139
x2 = 0.4626	0.148
x2 = 0.5057	0.151
x2 = 0.5993	0.145
x2 = 0.6517	0.136
x2 = 0.7248	0.118
x2 = 0.8046	0.0932
